Test results published in ChEMBL document CHEMBL5053509, “Development of a Selective Dual Discoidin Domain Receptor (DDR)/p38 Kinase Chemical Probe” (J Med Chem, 2021).

Test: Metabolic stability in human liver microsomes assessed as parent compound remaining after 240 mins incubation by LC-MS/MS analysis
Assay type: ADME, Microsome
Settings: read-out: Stability

| remaining at 4 h [%] | Structure (SMILES) |
| --- | --- |
| 44 | CS(=O)(=O)N1CCC[C@H](NC(=O)[C@H](CCC2CCCCC2)NC(=O)c2ccc(CNC(=O)c3cnn(-c4ccccc4)c3N)cc2)C1 |
| 44 | CS(=O)(=O)N1CCCC(NC(=O)[C@H](CCC2CCCCC2)NC(=O)c2ccc(CNC(=O)c3cnc4ccccn34)cc2)C1 (mixture of isomers) [SR-302] |
